Measured values reported in patent US12338296B2, “Peptides and compounds that bind to elongation initiation factor 4E” (AGENCY FOR SCIENCE, TECHNOLOGY AND RESEARCH, priority 2019, dated 2025).
pKd: −log10 of the molar value. Peptide text beside a SMILES is read from it.

What follows are compounds tested against T1, eIF4E (Homo sapiens, UniProt P06730) (assay: Surface plasmon resonance Kd determination on immobilized eIF4E (Biacore T100, CM5 chip)). Conditions: KD relative to EE-2 (SPR).
T1 construct: made in house; Plasmid and cells were provided by Cyclacel Ltd., Dundee
T1 sequence (P06730 whole entry): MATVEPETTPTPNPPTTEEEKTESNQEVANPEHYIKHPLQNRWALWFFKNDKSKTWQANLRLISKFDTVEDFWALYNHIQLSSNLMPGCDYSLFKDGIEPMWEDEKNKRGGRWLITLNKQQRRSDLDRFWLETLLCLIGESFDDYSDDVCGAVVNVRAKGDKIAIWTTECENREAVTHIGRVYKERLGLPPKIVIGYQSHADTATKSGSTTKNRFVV
Type: binding
Protocol: Surface Plasmon Resonance (for Structural Activity Relationship (SAR) Tables)
For stock peptide solutions, the compounds were dissolved in 100% DMSO to a concentration of 10 mM; further dilutions of the peptide stock solutions into DMSO and/or running buffer were performed immediately prior to analysis. Running buffer consisted of 10 mM Hepes pH 7.6, 0.15 M NaCl, and 0.1% Tween20. Stock/DMSO diluted peptide solutions were diluted into 1.03× running buffer to make a peptide solution with 3% DMSO final concentration. […] Surface Plasmon resonance experiments were performed on a Biacore T100 machine.
Pure eIF4E was immnobilized on a CM5 sensor chip. The CM5 chip was conditioned with a 6 s injection of 100 mM HCL, followed by a 6 s injection of 0.1% SDS and completed with a 6 s injection of 50 mM NaOH at a flow rate of 100 μl/min. Activation of the sensor chip surface was performed with a mixture of NHS (115 mg ml^−1) and EDC (750 mg ml^−1) for 7 min at 10 μl min^−1. […] The amount of eIF4E immobilized on the activated surface was controlled by altering the contact time of the protein solution and was approximately 1000 RU. After the immobilization of the protein, a 7-min injection (at 10 μl min^−1) of 1 M ethanolamine (pH 8.5) was used to quench excess active succinimide ester groups.
Six buffer blanks were first injected to equilibrate the instrument fully and then a solvent correction curve was performed followed by a further two blank injections. The solvent correction curve was setup by adding varying amount of 100% DMSO to 1.03× running buffer to generate a range of DMSO solutions (3.8%, 3.6%, 3.4%, 3.2%, 3%, 2.85%, 2.7% and 2.5% respectively). Using a flow rate of 50 μl/min, compounds were injected for 60 s and dissociation was monitored for 180 s. The data collection rate was 10 Hz. Kds were determined using the BiaEvaluation software (Biacore) and calculated from both the response of the eIF4E coated CM5 chips at equilibrium and also kinetically from the dissociation and association phase data for each of the peptides. Both the equilibrium and kinetic data were fitted to 1:1 binding models. Each individual peptide Kd was determined from three separate titrations. Within each titration at least two concentration points were duplicated to ensure stability and robustness of the chip surface.
Kd were determined using surface plasmon resonance (SPR) as described in Methods.

Row | Compound | Fold change
1 | CSCC[C@@H]1NC(=O)[C@H](CCC(=O)O)NC(=O)[C@@H](NC(=O)[C@H](C)NC(C)=O)CSSC[C@@H](C(=O)NCC(N)=O)NC(=O)[C@H](CC(=O)O)NC(=O)[C@H](CCC(N)=O)NC(=O)[C@H](Cc2ccccc2)NC(=O)[C@H](Cc2ccccc2)NC(=O)CNC1=O [EE-11] | 4.9
2 | CSCC[C@@H]1NC(=O)[C@H](CCC(=O)O)NC(=O)[C@@H](NC(=O)[C@H](C)N)CSSC[C@@H](C(=O)NCC(N)=O)NC(=O)[C@H](CC(=O)O)NC(=O)[C@H](CCCCN)NC(=O)[C@H](Cc2ccccc2)NC(=O)[C@H](Cc2ccccc2)NC(=O)CNC1=O [EE-39] (HELM PEPTIDE1{A.C.E.M.G.F.F.K.D.C.G.[am]}$PEPTIDE1,PEPTIDE1,2:R3-10:R3$$$V2.0) | 0.5
3 | CSCC[C@@H]1NC(=O)[C@H](CCC(=O)O)NC(=O)[C@@H](NC(=O)[C@H](C)N)CSSC[C@@H](C(=O)NCC(N)=O)NC(=O)[C@H](CC(=O)O)NC(=O)CNC(=O)[C@H](Cc2ccccc2)NC(=O)[C@H](Cc2ccccc2)NC(=O)CNC1=O [EE-40] (HELM PEPTIDE1{A.C.E.M.G.F.F.G.D.C.G.[am]}$PEPTIDE1,PEPTIDE1,2:R3-10:R3$$$V2.0) | 1.9
4 | CSCC[C@@H]1NC(=O)[C@H](CCC(=O)O)NC(=O)[C@@H](NC(=O)[C@H](C)N)CSSC[C@@H](C(=O)NCC(N)=O)NC(=O)[C@H](CC(=O)O)NC(=O)[C@H](CC(C)C)NC(=O)[C@H](Cc2ccccc2)NC(=O)[C@H](Cc2ccccc2)NC(=O)CNC1=O [EE-41] (HELM PEPTIDE1{A.C.E.M.G.F.F.L.D.C.G.[am]}$PEPTIDE1,PEPTIDE1,2:R3-10:R3$$$V2.0) | 0.9
5 | CSCC[C@@H]1NC(=O)[C@H](CCC(=O)O)NC(=O)[C@@H](N)CSSC[C@@H](C(N)=O)NC(=O)[C@H](CC(=O)O)NC(=O)[C@H](C)NC(=O)[C@H](Cc2ccccc2)NC(=O)[C@H](Cc2ccccc2)NC(=O)CNC1=O [EE-44] (HELM PEPTIDE1{C.E.M.G.F.F.A.D.C.[am]}$PEPTIDE1,PEPTIDE1,1:R3-9:R3$$$V2.0) | 0.4

Same assay, conditions: SPR, eIF4E immobilized on CM5 chip, 1:1 binding model, three separate titrations

Row | Compound | pKd
6 | CSCC[C@@H]1NC(=O)[C@H](C)NC(=O)[C@@H](NC(=O)[C@H](C)N)CSSC[C@@H](C(=O)NCC(N)=O)NC(=O)[C@H](CC(=O)O)NC(=O)[C@H](CCC(N)=O)NC(=O)[C@H](Cc2ccccc2)NC(=O)[C@H](Cc2ccccc2)NC(=O)CNC1=O [EE-2A] (HELM PEPTIDE1{A.C.A.M.G.F.F.Q.D.C.G.[am]}$PEPTIDE1,PEPTIDE1,2:R3-10:R3$$$V2.0; bridges inferred) | 4.96
7 | C[C@H](N)C(=O)N[C@H]1CSSC[C@@H](C(=O)NCC(N)=O)NC(=O)[C@H](CC(=O)O)NC(=O)[C@H](CCC(N)=O)NC(=O)[C@H](Cc2ccccc2)NC(=O)[C@H](Cc2ccccc2)NC(=O)CNC(=O)[C@H](C)NC(=O)[C@H](CCC(=O)O)NC1=O [EE-2B] (HELM PEPTIDE1{A.C.E.A.G.F.F.Q.D.C.G.[am]}$PEPTIDE1,PEPTIDE1,2:R3-10:R3$$$V2.0) | < 4.30
8 | CSCC[C@@H]1NC(=O)[C@H](CCC(=O)O)NC(=O)[C@@H](NC(=O)[C@H](C)N)CSSC[C@@H](C(=O)NCC(N)=O)NC(=O)[C@H](CC(=O)O)NC(=O)[C@H](CCC(N)=O)NC(=O)[C@H](Cc2ccccc2)NC(=O)[C@H](Cc2ccccc2)NC(=O)[C@H](C)NC1=O [EE-2C] (HELM PEPTIDE1{A.C.E.M.A.F.F.Q.D.C.G.[am]}$PEPTIDE1,PEPTIDE1,2:R3-10:R3$$$V2.0; bridges inferred) | 4.49
9 | CSCC[C@@H]1NC(=O)[C@H](CCC(=O)O)NC(=O)[C@@H](NC(=O)[C@H](C)N)CSSC[C@@H](C(=O)NCC(N)=O)NC(=O)[C@H](CC(=O)O)NC(=O)[C@H](CCC(N)=O)NC(=O)[C@H](C)NC(=O)[C@H](Cc2ccccc2)NC(=O)CNC1=O [EE-2E] (HELM PEPTIDE1{A.C.E.M.G.F.A.Q.D.C.G.[am]}$PEPTIDE1,PEPTIDE1,2:R3-10:R3$$$V2.0) | < 4.30
10 | CSCC[C@@H]1NC(=O)[C@H](CCC(=O)O)NC(=O)[C@@H](NC(=O)[C@H](C)NC(C)=O)CSSC[C@@H](C(=O)NCC(N)=O)NC(=O)[C@H](CC(=O)O)NC(=O)[C@H](CCC(N)=O)NC(=O)[C@H](Cc2ccccc2)NC(=O)[C@H](Cc2ccccc2)NC(=O)CNC1=O [EE-11] | 6.00
11 | CSCC[C@@H]1NC(=O)[C@H](CCC(=O)O)NC(=O)[C@@H](NC(=O)[C@H](C)N)CSSC[C@@H](C(=O)NCC(N)=O)NC(=O)[C@H](CC(=O)O)NC(=O)[C@H](CCC(N)=O)NC(=O)[C@H](Cc2ccccc2)NC(=O)[C@H](Cc2ccccc2)NC(=O)CCNC1=O [EE-27] (HELM PEPTIDE1{A.C.E.M.[bAla].F.F.Q.D.C.G.[am]}$PEPTIDE1,PEPTIDE1,2:R3-10:R3$$$V2.0) | < 4.30
12 | CSCC[C@@H]1NC(=O)[C@H](CCC(=O)O)NC(=O)[C@@H](NC(=O)[C@H](C)N)CSSC[C@@H](C(=O)NCC(N)=O)NC(=O)[C@H](CC(=O)O)NC(=O)[C@H](CCC(N)=O)NC(=O)[C@H](Cc2ccccc2)NC(=O)[C@H](Cc2ccccc2)NC(=O)[C@@H]2CCCN2C1=O [EE-29] (HELM PEPTIDE1{A.C.E.M.P.F.F.Q.D.C.G.[am]}$PEPTIDE1,PEPTIDE1,2:R3-10:R3$$$V2.0) | < 4.30
13 | CSCC[C@@H]1NC(=O)[C@H](CCC(=O)O)NC(=O)[C@@H](NC(=O)[C@H](C)N)CSSC[C@@H](C(=O)NCC(N)=O)NC(=O)[C@H](CC(=O)O)NC(=O)[C@H](CCC(N)=O)NC(=O)[C@H](Cc2ccccc2)NC(=O)[C@H](CC(C)C)NC(=O)CNC1=O [EE-33] (HELM PEPTIDE1{A.C.E.M.G.L.F.Q.D.C.G.[am]}$PEPTIDE1,PEPTIDE1,2:R3-10:R3$$$V2.0) | < 4.30
14 | CSCC[C@@H]1NC(=O)[C@H](CCC(=O)O)NC(=O)[C@@H](NC(=O)[C@H](C)N)CSSC[C@@H](C(=O)NCC(N)=O)NC(=O)[C@H](CC(=O)O)NC(=O)[C@H](CCC(N)=O)NC(=O)[C@H](CC(C)C)NC(=O)[C@H](Cc2ccccc2)NC(=O)CNC1=O [EE-34] (HELM PEPTIDE1{A.C.E.M.G.F.L.Q.D.C.G.[am]}$PEPTIDE1,PEPTIDE1,2:R3-10:R3$$$V2.0) | < 4.30
15 | CSCC[C@@H]1NC(=O)[C@H](CCC(=O)O)NC(=O)[C@@H](NC(=O)[C@H](C)N)CSSC[C@@H](C(=O)NCC(N)=O)NC(=O)[C@H](CC(=O)O)NC(=O)[C@H](CCC(N)=O)NC(=O)[C@H](CC(C)C)NC(=O)[C@H](CC(C)C)NC(=O)CNC1=O [EE-38] (HELM PEPTIDE1{A.C.E.M.G.L.L.Q.D.C.G.[am]}$PEPTIDE1,PEPTIDE1,2:R3-10:R3$$$V2.0) | < 4.30
16 | CSCC[C@@H]1NC(=O)[C@H](CCC(=O)O)NC(=O)[C@@H](NC(=O)[C@H](C)N)CSSC[C@@H](C(=O)NCC(N)=O)NC(=O)[C@H](CC(=O)O)NC(=O)CNC(=O)[C@H](Cc2ccccc2)NC(=O)[C@H](Cc2ccccc2)NC(=O)CNC1=O [EE-40] (HELM PEPTIDE1{A.C.E.M.G.F.F.G.D.C.G.[am]}$PEPTIDE1,PEPTIDE1,2:R3-10:R3$$$V2.0) | 6.40

Same assay, conditions: SPR, in words

Row | Compound | binding to eIF4E compared with EE-02
17 | CSCC[C@@H]1NC(=O)[C@H](CCC(=O)O)NC(=O)[C@@H](NC(=O)[C@H](C)N)CSSC[C@@H](C(=O)NCC(N)=O)NC(=O)[C@H](CC(=O)O)NC(=O)[C@H](CCC(N)=O)NC(=O)[C@H](Cc2ccccc2)NC(=O)[C@H](Cc2ccc(O)cc2)NC(=O)CNC1=O [EE-30] (HELM PEPTIDE1{A.C.E.M.G.Y.F.Q.D.C.G.[am]}$PEPTIDE1,PEPTIDE1,2:R3-10:R3$$$V2.0) | bound more tightly than EE-02
18 | CSCC[C@@H]1NC(=O)[C@H](CCC(=O)O)NC(=O)[C@@H](NC(=O)[C@H](C)N)CSSC[C@@H](C(=O)NCC(N)=O)NC(=O)[C@H](CC(=O)O)NC(=O)[C@H](CCC(N)=O)NC(=O)[C@H](Cc2ccc(O)cc2)NC(=O)[C@H](Cc2ccccc2)NC(=O)CNC1=O [EE-35] (HELM PEPTIDE1{A.C.E.M.G.F.Y.Q.D.C.G.[am]}$PEPTIDE1,PEPTIDE1,2:R3-10:R3$$$V2.0) | bound more tightly than EE-02

These compounds were tested against T1, eIF4E (assay: Tryptophan quenching experiments). Conditions: 1 μM eIF4E, 0.01-20 μM titrant, excitation 290 nm, emission 355 nm; FIG. 2.
Type: binding
Protocol: Tryptophan Quenching Experiments
Tryptophan quenching experiments were performed using an EnVision® multiplate reader with black matte 96-well plates. […] Concentrations tested ranged from 0.01-20 μM. Samples were excited with UV light at 290 nm to minimise contribution from tyrosine fluorescence. Tryptophan was measured at an emission wavelength of 355 nm.

Row | Compound | tryptophan quenching of eIF4E
19 | KKRYSRDQLVAL (Synthetic peptide PHAGESOL) [reference compound] | significantly lower amounts of tryptophan quenching
